Experimental data reported in patent US7161008B2, “Optically active β-aminoketones, optically active 1,3-amino alcohols and processes for preparing them” (Sanofi - Aventis Deutschland GmbH, priority 2002, dated 2007).

Experiment: Syn/anti-isomerization of the Mannich salt via retro-Mannich/Mannich reaction in DMSO-d6 solution at 300 K, 1H NMR monitoring
Format: physicochemical
Conditions: for cis-isomer [%] / trans-isomer [%]: DMSO-d6, 300 K, 1H NMR
Method: Electron-withdrawing substituents in the aldehyde component of formula (IV) reduced the retro-Mannich tendency. The 1H NMR monitoring of the syn/anti-isomerization of a syn-Mannich salt of formula (III) via retro-Mannich reaction at 300 K in DMSO-d6 solution can be seen in Example 28.
Syn/anti-isomerization of the Mannich base mandelate from […] in DMSO-d^6 solution at 300K. Kinetics and equilibrium location of the retro-Mannich/Mannich reactions:
8 mg of the product from Example 27 were dissolved in DMSO-d^6 as rapidly as possible in a ^1H NMR tube at room temperature. The sample was immediately introduced into the NMR instrument (400 MHz, 300.0 K), shimmed rapidly and analyzed. The first spectrum was obtained 3.5 min after the sample dissolution. […] Further spectra of the solution were each obtained at an interval of 3–4 min. […] The variation can be seen from the graphics and the table of the appendix. 69 min after dissolution of the Mannich salt, the NMR monitoring was aborted at a syn/anti ratio of 50:50. A repeat measurement 20.5 hours after dissolution of the Mannich salt indicated a syn/anti ratio of 41.5:58.5. After a total of 44.5 hours, this ratio was unchanged. The thermodynamic equilibrium of the two isomers is thus achieved in less than 20 h and the anti-isomer is preferred in solution. In contrast, the four-component coupling (Example 27) results in the crystallization of virtually pure syn-isomer, apparently owing to lower solubility. Even the spectrum obtained 3.5 min after sample dissolution indicates (in addition to the syn- and anti-isomers of the Mannich salt) the presence of the retro-Mannich products 2-pyridylmethyl phenyl ketone (formula VI; singlet at δ is 4.53 ppm) and tolylaldehyde (or corresponding imine) (formula IV or X, singlets at δ is 2.40 and 9.12 ppm) in small but significant amounts. The best fitting curve between the measurement points of the graph was obtained by 3rd order polynomial formation.

[1] = 3.5 min after sample dissolution
[2] = 6.5 min after sample dissolution
[3] = 10.5 min after sample dissolution
[4] = 13.5 min after sample dissolution
[5] = 17.5 min after sample dissolution
[6] = 20.5 min after sample dissolution
[7] = 24.5 min after sample dissolution
[8] = 27.5 min after sample dissolution
[9] = 31.5 min after sample dissolution
[10] = 34.5 min after sample dissolution
[11] = 37.5 min after sample dissolution
[12] = 41.5 min after sample dissolution
[13] = 44.5 min after sample dissolution
[14] = 48.5 min after sample dissolution
[15] = 51.5 min after sample dissolution
[16] = 55.5 min after sample dissolution
[17] = 58.5 min after sample dissolution
[18] = 61.5 min after sample dissolution
[19] = 65.5 min after sample dissolution
[20] = 68.5 min after sample dissolution
[21] = 1230 min after sample dissolution
[22] = 2670 min after sample dissolution

Structure (SMILES): Cc1ccc(C(Nc2ccccn2)C(C(=O)c2ccccc2)c2ccccn2)cc1.O=C(O)C(O)c1ccccc1 (stereo not shown) [Example 27]
- cis-isomer [%] [1]: 95.1%
- trans-isomer [%] [1]: 4.9%
- cis-isomer [%] [2]: 92.5%
- trans-isomer [%] [2]: 7.5%
- cis-isomer [%] [3]: 89.0%
- trans-isomer [%] [3]: 11.0%
- cis-isomer [%] [4]: 85.0%
- trans-isomer [%] [4]: 15.0%
- cis-isomer [%] [5]: 81.7%
- trans-isomer [%] [5]: 18.3%
- cis-isomer [%] [6]: 77.3%
- trans-isomer [%] [6]: 22.7%
- cis-isomer [%] [7]: 76.8%
- trans-isomer [%] [7]: 23.2%
- cis-isomer [%] [8]: 71.8%
- trans-isomer [%] [8]: 28.2%
- cis-isomer [%] [9]: 68.0%
- trans-isomer [%] [9]: 32.0%
- cis-isomer [%] [10]: 66.2%
- trans-isomer [%] [10]: 33.8%
- cis-isomer [%] [11]: 63.8%
- trans-isomer [%] [11]: 36.2%
- cis-isomer [%] [12]: 61.7%
- trans-isomer [%] [12]: 38.3%
- cis-isomer [%] [13]: 60.1%
- trans-isomer [%] [13]: 39.9%
- cis-isomer [%] [14]: 58.7%
- trans-isomer [%] [14]: 41.3%
- cis-isomer [%] [15]: 56.8%
- trans-isomer [%] [15]: 43.2%
- cis-isomer [%] [16]: 54.5%
- trans-isomer [%] [16]: 45.5%
- cis-isomer [%] [17]: 53.6%
- trans-isomer [%] [17]: 46.4%
- cis-isomer [%] [18]: 52.9%
- trans-isomer [%] [18]: 47.1%
- cis-isomer [%] [19]: 52.0%
- trans-isomer [%] [19]: 48.0%
- cis-isomer [%] [20]: 50.5%
- trans-isomer [%] [20]: 49.5%
- cis-isomer [%] [21]: 41.5%
- trans-isomer [%] [21]: 58.5%
- cis-isomer [%] [22]: 41.6%
- trans-isomer [%] [22]: 58.4%
- syn/anti ratio of the Mannich salt in solution, compared with 20.5 hours (DMSO-d6, 300.0 K, after a total of 44.5 hours): unchanged
- time to thermodynamic equilibrium of syn- and anti-isomers (DMSO-d6 solution, 300 K): less than 20 h
